A word on the IC50: it is the concentration needed to halve the response being measured.

The assay has as its target T1, purified recombinant human IKKb (Homo sapiens, UniProt O14920).
T1 sequence (O14920 1-756): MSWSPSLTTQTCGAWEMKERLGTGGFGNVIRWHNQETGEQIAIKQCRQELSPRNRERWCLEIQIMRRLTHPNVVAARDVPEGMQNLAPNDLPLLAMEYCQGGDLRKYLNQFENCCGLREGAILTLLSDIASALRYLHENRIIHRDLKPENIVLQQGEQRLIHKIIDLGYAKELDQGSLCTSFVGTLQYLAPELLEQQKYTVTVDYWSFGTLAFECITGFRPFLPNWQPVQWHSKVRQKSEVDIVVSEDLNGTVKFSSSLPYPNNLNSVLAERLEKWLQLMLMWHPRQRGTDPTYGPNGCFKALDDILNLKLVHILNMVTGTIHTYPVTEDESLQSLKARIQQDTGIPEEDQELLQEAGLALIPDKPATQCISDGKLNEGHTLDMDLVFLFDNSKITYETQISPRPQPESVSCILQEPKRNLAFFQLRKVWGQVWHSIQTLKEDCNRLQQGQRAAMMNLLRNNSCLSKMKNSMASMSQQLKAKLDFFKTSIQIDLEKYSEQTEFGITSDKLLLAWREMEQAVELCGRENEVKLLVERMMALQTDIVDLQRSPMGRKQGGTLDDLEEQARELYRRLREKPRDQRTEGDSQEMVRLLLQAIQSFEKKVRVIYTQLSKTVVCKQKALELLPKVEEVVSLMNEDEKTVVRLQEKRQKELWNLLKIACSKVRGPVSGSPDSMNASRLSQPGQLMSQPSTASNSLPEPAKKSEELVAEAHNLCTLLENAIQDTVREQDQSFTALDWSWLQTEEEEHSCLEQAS
Description: IKKb kinase assay, incorporation of radiolabeled 33P gATP into Biotin-peptide substrate derived from IkB-alpha. The format is biochemical. The conditions noted are these: recombinant human IKKb 25 nM, ATP 10 μM, peptide substrate 30 μM, 30 minutes at 30° C. On the procedure:
This example describes an assay that is useful in evaluating and selecting a compound that modulates IKK. The assay measures the incorporation of radiolabeled ^33P gATP into the Biotin-peptide kinase substrate, derived from the IkB-alpha sequence.
In a 40 ul volume, 26 ul of ADB diluted, purified recombinant human IKKb [25 nM] was mixed with 4 ul 10× concentration of test compounds, [usually 100 uM–0.003 uM], [10%] DMSO and incubated for 10 minutes at room temperature. The kinase reaction was initiated by the addition of 10 ul 4× substrate cocktail containing the peptide substrate [0 or 30 μM] ATP [10 μM], and ^33PgATP [2uCi/rxn]. After 30 minutes of incubation at 30° C., the reaction was terminated by the transfer of 25 ul reaction sample to a phosphocellulose membrane/plate containing 150 ul 0.75% phosphoric acid.
On the following day, the free radionucleotides in the phosphocellulose membrane were washed under vacuum with 3×200 ul of 0.75% phosphoric acid. After the last wash membrane/plates were transferred to an adoptor plate and 70 ul of scintillation cocktail was added to each well. After four hours, the amount of radioactivity for each well was counted in a top counter.

Where only a bound is given, the exact number is not on record here.

As for `NC(=O)c1nnc(N)c2cc(-c3ccc(F)cc3)sc12` [Compound 3, 4-Amino-2-(4-fluoro-phenyl)-thieno[2,3-d]pyridazine-7-carboxylic acid amide], the IC50 was less than 1000 nM.

The values above are taken from patent US7135470B2, “Thienopyridazines as IKK inhibitors” (Roche Palo Alto LLC, priority 2004, dated 2006).
